Measured values as given in the supplement of paper PMC10307832.

Key:
Test in all cases: relative viability (nuclei count vs DMSO), 5 days (fraction); higher = more cells survive
[1] = compound: C[C@]12O[C@H](C[C@]1(O)CO)n1c3ccccc3c3c4c(c5c6ccccc6n2c5c31)CNC4=O [Lestaurtinib] + CC(=O)Nc1cccc(-n2c(=O)n(C3CC3)c(=O)c3c(Nc4ccc(I)cc4F)n(C)c(=O)c(C)c32)c1 [Trametinib] (partner 0.02 µM)
How it was run: (§1)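 Relative viability is defined as nuclei in treated wells over nuclei in vehicle wells. Duplicate plates were run and medians reported. Lung cancer cell lines in 1536-well plates were dosed by pin tool one day after seeding, with one drug or with a fixed anchor-drug dose plus five library-drug doses (not always all listed) in √10 steps, and nuclei were counted after 5 days.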

TPCA-1 + Bortezomib = compound: C1=CC(=CC=C1C2=CC(=C(S2)NC(=O)N)C(=O)N)F [TPCA-1] + CC(C)C[C@H](NC(=O)[C@H](Cc1ccccc1)NC(=O)c1cnccn1)B(O)O [Bortezomib] (partner 0.002 µM)
How it was run: as §1

[2] = compound: C[C@]12O[C@H](C[C@]1(O)CO)n1c3ccccc3c3c4c(c5c6ccccc6n2c5c31)CNC4=O [Lestaurtinib] + CS(=O)(=O)N1CCN(Cc2cc3nc(-c4cccc5[nH]ncc45)nc(N4CCOCC4)c3s2)CC1 [Pictilisib] (partner 1 µM)
How it was run: as §1

TPCA-1 + Crizotinib = compound: C1=CC(=CC=C1C2=CC(=C(S2)NC(=O)N)C(=O)N)F [TPCA-1] + C[C@@H](Oc1cc(-c2cnn(C3CCNCC3)c2)cnc1N)c1c(Cl)ccc(F)c1Cl [Crizotinib] (partner 1 µM)
How it was run: as §1

UMC-11
relative viability ([1]; first compound 0.005 µM): 0.746
relative viability ([1]; first compound 0.01581 µM): 0.6
relative viability ([1]; first compound 0.05 µM): 0.601
relative viability ([1]; first compound 0.1581 µM): 0.311
relative viability ([1]; first compound 0.5 µM): 0.155
relative viability (TPCA-1 + Bortezomib; first compound 0.04 µM): 0.663
relative viability (TPCA-1 + Bortezomib; first compound 0.1265 µM): 0.667
relative viability (TPCA-1 + Bortezomib; first compound 0.4 µM): 0.798
relative viability (TPCA-1 + Bortezomib; first compound 1.265 µM): 0.735
relative viability (TPCA-1 + Bortezomib; first compound 4 µM): 0.134
relative viability ([2]; first compound 0.005 µM): 0.83
relative viability ([2]; first compound 0.01581 µM): 0.767
relative viability ([2]; first compound 0.05 µM): 0.415
relative viability ([2]; first compound 0.1581 µM): 0.366
relative viability ([2]; first compound 0.5 µM): 0.145
relative viability (TPCA-1 + Crizotinib; first compound 0.04 µM): 0.579
relative viability (TPCA-1 + Crizotinib; first compound 0.1265 µM): 0.586
relative viability (TPCA-1 + Crizotinib; first compound 0.4 µM): 0.578
relative viability (TPCA-1 + Crizotinib; first compound 1.265 µM): 0.573
relative viability (TPCA-1 + Crizotinib; first compound 4 µM): 0.274
